In ChEMBL document CHEMBL3390839, “Triazolopyrimidinones as -secretase modulators: structureactivity relationship, modulator profile, and in vivo profiling” (Medchemcomm, 2013):
Values after ≈ are worked out from the molar mass of the structure shown.

How the values were obtained:
[1] = test system: Mus musculus; assay: Dose normalized AUC in C57BL/6 mouse at 3 umol/kg, iv; type: ADME, organism-based; settings: in vivo
[2] = target: Voltage-gated inwardly rectifying potassium channel KCNH2 (Homo sapiens, UniProt Q12809); assay: Inhibition of human ERG
Voltage-gated inwardly rectifying potassium channel KCNH2, sequence (Q12809 whole entry): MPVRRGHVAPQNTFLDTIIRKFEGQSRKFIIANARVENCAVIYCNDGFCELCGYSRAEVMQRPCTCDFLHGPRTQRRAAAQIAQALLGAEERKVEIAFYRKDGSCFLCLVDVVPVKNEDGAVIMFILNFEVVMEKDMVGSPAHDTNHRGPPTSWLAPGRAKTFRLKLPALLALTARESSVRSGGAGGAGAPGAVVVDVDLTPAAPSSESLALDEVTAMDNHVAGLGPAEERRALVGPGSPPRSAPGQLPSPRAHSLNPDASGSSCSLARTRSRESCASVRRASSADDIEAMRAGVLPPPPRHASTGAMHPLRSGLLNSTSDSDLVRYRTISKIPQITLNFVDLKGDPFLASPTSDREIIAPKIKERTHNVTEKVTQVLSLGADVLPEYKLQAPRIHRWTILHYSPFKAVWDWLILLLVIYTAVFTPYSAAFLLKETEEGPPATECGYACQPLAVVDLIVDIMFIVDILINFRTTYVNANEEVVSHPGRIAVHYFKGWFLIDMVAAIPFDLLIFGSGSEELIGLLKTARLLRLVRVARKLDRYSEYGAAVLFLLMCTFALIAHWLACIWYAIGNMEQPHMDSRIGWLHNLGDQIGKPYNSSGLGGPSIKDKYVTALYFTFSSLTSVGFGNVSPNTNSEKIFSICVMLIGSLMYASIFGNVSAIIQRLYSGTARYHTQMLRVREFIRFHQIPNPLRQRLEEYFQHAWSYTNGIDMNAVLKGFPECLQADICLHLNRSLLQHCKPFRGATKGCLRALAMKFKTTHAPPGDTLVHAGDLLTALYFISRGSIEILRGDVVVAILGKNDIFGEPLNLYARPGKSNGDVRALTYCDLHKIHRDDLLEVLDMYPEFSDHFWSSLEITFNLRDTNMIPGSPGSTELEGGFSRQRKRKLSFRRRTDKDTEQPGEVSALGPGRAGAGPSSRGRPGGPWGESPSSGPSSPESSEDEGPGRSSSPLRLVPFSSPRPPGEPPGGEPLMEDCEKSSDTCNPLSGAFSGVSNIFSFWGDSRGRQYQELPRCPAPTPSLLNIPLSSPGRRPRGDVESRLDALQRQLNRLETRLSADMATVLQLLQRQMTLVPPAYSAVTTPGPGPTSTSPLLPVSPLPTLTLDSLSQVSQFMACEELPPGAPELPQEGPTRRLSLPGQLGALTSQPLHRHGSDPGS

[3] = Permeability across apical to basolateral side in human Caco2 cells; type: ADME, cell-based; settings: Caco-2, read-out: permeability
[4] = Cmax in C57BL/6 mouse at 10 umol/kg, po; type: ADME, organism-based; design: dose 10 umol/kg, route oral; settings: in vivo
[5] = Volume of distribution at steady state in C57BL/6 mouse at 3 umol/kg, iv; type: ADME, organism-based; settings: in vivo, read-out: Vdss
[6] = Oral bioavailability in C57BL/6 mouse at 10 umol/kg; type: ADME, organism-based; settings: in vivo
[7] = Permeability across basolateral to apical side in human Caco2 cells; type: ADME, cell-based; settings: Caco-2, read-out: permeability
[8] = Clearance in C57BL/6 mouse at 3 umol/kg, iv; type: ADME, organism-based; settings: in vivo
[9] = Half life in C57BL/6 mouse at 3 umol/kg, iv; type: ADME, organism-based; settings: in vivo
[10] = test system: Liver microsome; assay: Intrinsic clearance in human liver microsomes measured pre ug of protein; type: ADME
[11] = Ratio of drug level in brain to plasma in C57BL/6 mouse; type: ADME, organism-based; settings: brain and plasma, read-out: BPR
[12] = target: Gamma-secretase; assay: Inhibition of human gamma-secretase in HEK-APPswe cells assessed as amyloid beta42 production by electrochemiluminescence assay; type: cell-based
[13] = Solubility of the compound; type: physicochemical
[14] = test system: Mus musculus; assay: Reduction in amyloid beta42 production in C57BL/6 mouse brain at 150 umol/kg, po after 1.5 hrs by ELISA relative to vehicle treated control; type: functional; settings: C57BL/6, Brain
[15] = test system: Mus musculus; assay: Reduction in amyloid beta42 production in C57BL/6 mouse brain at 50 umol/kg, po after 1.5 hrs by ELISA relative to vehicle treated control; type: functional; settings: C57BL/6, Brain
[16] = Inhibition of gamma-secretase in mouse primary cortical neurons cells assessed as amyloid beta42 production after 5 days by ELISA; type: cell-based, Cerebral cortex neuron; settings: cerebral cortex neuron
[17] = Tmax in C57BL/6 mouse at 10 umol/kg, po; type: ADME, organism-based; settings: in vivo
[18] = test system: Mus musculus; assay: Dose normalized AUC in C57BL/6 mouse at 10 umol/kg, po; type: ADME, organism-based; settings: in vivo
[19] = Half life in C57BL/6 mouse at 10 umol/kg, po; type: ADME, organism-based; settings: in vivo

COc1cc(Nc2nc3n(n2)C(C)CC(=O)N3Cc2ccccc2)ccc1-n1cnc(C)c1 (stereo in doubt; 19B) showed an AUC/dose [1] of 0.84 kg·h/L, an IC50 [2] of 3.7 µM and a Papp A→B [3] of 220 nm/s. For the same compound, the Cmax [4] was 1.2 µM, the Vd [5] was 0.9 L/kg and the bioavailability [6] was 32%. For the same compound, the Papp B→A [7] was 130 nm/s, the clearance [8] was 1.26 L/h/kg and the half-life [9] was 36 min. For the same compound, the CLH [10] was 52 µL/min, the Kp [11] was 0.72 and the pIC50 [12] was 8. For the same compound, the solubility [13] was 6 µM (≈ 2.66 µg/mL), the inhibition in vivo at 150 µmol/kg [14] was 24% and the inhibition in vivo at 50 µmol/kg [15] was 9%. The pIC50 [16] was 7.7, the Tmax [17] was 30 min and the AUC/dose [18] was 0.27 kg·h/L. The half-life [19] was 312 min.
